From patent publication US12077503B2, “Substituted cyclic amides and their use as herbicides” (FMC CORPORATION, priority 2015, dated 2024)

Assays:
Assay type in all cases: in vivo
corn (Zea mays) = test: Test A postemergence; details: postemergence
Summary of the method: (§1)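 Seeds sprayed preemergence with a directed soil spray, or plants at 2 to 10 cm height and one- to two-leaf stage sprayed postemergence, with test chemicals in a non-phytotoxic solvent mixture containing surfactant, in loam soil–sand blend. Injury rated visually against untreated controls after about 10 d in greenhouse, 0 (no effect) to 100 (complete control).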

[1] = system: blackgrass (Alopecurus myosuroides); test: Test A postemergence; details: postemergence
Summary of the method: as §1

Kochia (Kochia scoparia) [2] = test: Test A postemergence; details: postemergence
Summary of the method: as §1

[3] = system: ragweed (common ragweed, Ambrosia elatior); test: Test A postemergence; details: postemergence
Summary of the method: as §1

[4] = system: giant foxtail (Setaria faberii); test: Test A postemergence; details: postemergence
Summary of the method: as §1

[5] = system: barnyardgrass (Echinochloa crus-galli); test: Test A postemergence; details: postemergence
Summary of the method: as §1

[6] = system: ryegrass, Italian (Italian ryegrass, Lolium multiflorum); test: Test A postemergence; details: postemergence
Summary of the method: as §1

[7] = system: Galium (catchweed bedstraw, Galium aparine); test: Test A postemergence; details: postemergence
Summary of the method: as §1

[8] = system: pigweed (Amaranthus retroflexus); test: Test A postemergence; details: postemergence
Summary of the method: as §1

[9] = system: wheat (Triticum aestivum); test: Test A postemergence; details: postemergence
Summary of the method: as §1

Kochia (Kochia scoparia) [10] = test: Test A preemergence
Summary of the method: as §1

[11] = system: ragweed (common ragweed, Ambrosia elatior); test: Test A preemergence
Summary of the method: as §1

[12] = system: giant foxtail (Setaria faberii); test: Test A preemergence
Summary of the method: as §1

[13] = system: barnyardgrass (Echinochloa crus-galli); test: Test A preemergence
Summary of the method: as §1

[14] = system: ryegrass, Italian (Italian ryegrass, Lolium multiflorum); test: Test A preemergence
Summary of the method: as §1

[15] = system: pigweed (Amaranthus retroflexus); test: Test A preemergence
rice (Oryra sativa) = test: Test B flooded paddy test; details: Flood, 250 g ai/ha; 0 to 100 scale where 0 is no effect and 100 is complete control; 13 to 15 d
Summary of the method: (§2)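 Greenhouse paddy pots with 2-leaf stage plants received compound by direct addition to floodwater 3 cm deep, kept at that level. Scored visually at 13–15 d versus controls (0 no effect; 100 complete control).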

[16] = system: barnyardgrass (Echinochloa crus-galli); test: Test B flooded paddy test; details: Flood, 250 g ai/ha; 0 to 100 scale where 0 is no effect and 100 is complete control; 13 to 15 d
Summary of the method: as §2

[17] = system: ducksalad (Heteranthera limosa); test: Test B flooded paddy test; details: Flood, 250 g ai/ha; 0 to 100 scale where 0 is no effect and 100 is complete control; 13 to 15 d
Summary of the method: as §2

[18] = system: sedge, umbrella (small-flower umbrella sedge, Cyperus difformis); test: Test B flooded paddy test; details: Flood, 250 g ai/ha; 0 to 100 scale where 0 is no effect and 100 is complete control; 13 to 15 d
Summary of the method: as §2

[19] = 125 g ai/ha, visual rating after approx. 10 d, 0 to 100 scale (0 no effect, 100 complete control)
[20] = 500 g ai/ha, visual injury, 0 to 100 scale (0 no effect, 100 complete control), approx. 10 d
[21] = 125 g ai/ha, Preemergence, visual injury after approximately 10 d, 0 to 100 scale where 0 is no effect and 100 is complete control
[22] = 500 g ai/ha, preemergence, 0 to 100 scale, 0 = no effect, 100 = complete control
[23] = 125 g ai/ha, visual injury rating on 0 to 100 scale (0 no effect, 100 complete control), approx. 10 d
[24] = 500 g ai/ha, 0 to 100 scale, 0 no effect, 100 complete control
[25] = 125 g ai/ha, preemergence, 0 to 100 scale (0 no effect, 100 complete control)
[26] = Preemergence, 500 g ai/ha, visual injury approx. 10 d

Compound: Cc1cc(C2CNC(=O)C2C(=O)Nc2cccc(F)c2F)cs1 (racemic) [Compound 656]
- Plant response rating, Corn (corn (Zea mays); [19]): 0
- Plant response rating, Corn (corn (Zea mays); [20]): 20
- Plant response rating, Blackgrass [1, 19]: 0
- Plant response rating, Blackgrass [1, 20]: 30
- Plant response rating, Kochia (Kochia (Kochia scoparia) [2]; [19]): 20
- Plant response rating, Kochia (Kochia (Kochia scoparia) [2]; [20]): 30
- Plant response rating, Ragweed [3, 19]: 0
- Plant response rating, Ragweed [3, 20]: 0
- Plant response rating, Foxtail, Giant [4, 19]: 20
- Plant response rating, Foxtail, Giant [4, 20]: 60
- Plant response rating, Barnyardgrass [5, 19]: 90
- Plant response rating, Barnyardgrass [5, 20]: 90
- Plant response rating, Ryegrass, Italian [6, 19]: 0
- Plant response rating, Ryegrass, Italian [6, 20]: 0
- Plant response rating, Galium [7, 19]: 0
- Plant response rating, Galium [7, 20]: 60
- Plant response rating, Pigweed [8, 19]: 0
- Plant response rating, Pigweed [8, 20]: 0
- Plant response rating, Wheat [9, 19]: 0
- Plant response rating, Wheat [9, 20]: 20
- Plant response rating, Kochia (Kochia (Kochia scoparia) [10]; [21]): 60
- Plant response rating, Kochia (Kochia (Kochia scoparia) [10]; [22]): 50
- Plant response rating, Ragweed [11, 21]: 20
- Plant response rating, Ragweed [11, 22]: 60
- Plant response rating, Foxtail, Giant [12, 21]: 90
- Plant response rating, Foxtail, Giant [12, 22]: 90
- Plant response rating, Barnyardgrass [13, 21]: 90
- Plant response rating, Barnyardgrass [13, 22]: 90
- Plant response rating, Ryegrass, Italian [14, 21]: 30
- Plant response rating, Ryegrass, Italian [14, 22]: 60
- Plant response rating, Pigweed [15, 21]: 30
- Plant response rating, Pigweed [15, 22]: 40
- Plant response rating, Rice (rice (Oryra sativa)): 0
- Plant response rating, Barnyardgrass [16]: 50
- Plant response rating, Ducksalad [17]: 100
- Plant response rating, Sedge, Umbrella [18]: 0

Compound: CN1CC(c2ccc(Cl)cc2)C(C(=O)Nc2ccc(F)cc2F)C1=O (stereo not drawn) [Compound 436]
- Corn plant response rating (corn (Zea mays); [23]): 0
- Plant response rating, Corn (corn (Zea mays); [24]): 40
- Blackgrass plant response rating [1, 23]: 30
- Plant response rating, Blackgrass [1, 24]: 40
- Kochia plant response rating (Kochia (Kochia scoparia) [2]; [23]): 40
- Plant response rating, Kochia (Kochia (Kochia scoparia) [2]; [24]): 70
- Ragweed plant response rating [3, 23]: 0
- Plant response rating, Ragweed [3, 24]: 20
- Foxtail, Giant plant response rating [4, 23]: 80
- Plant response rating, Foxtail, Giant [4, 24]: 90
- Barnyardgrass plant response rating [5, 23]: 90
- Plant response rating, Barnyardgrass [5, 24]: 90
- Ryegrass, Italian plant response rating [6, 23]: 20
- Plant response rating, Ryegrass, Italian [6, 24]: 50
- Galium plant response rating [7, 23]: 60
- Plant response rating, Galium [7, 24]: 60
- Pigweed plant response rating [8, 23]: 20
- Plant response rating, Pigweed [8, 24]: 60
- Wheat plant response rating [9, 23]: 20
- Plant response rating, Wheat [9, 24]: 40
- Plant response rating, Kochia (Kochia (Kochia scoparia) [10]; [25]): 70
- Kochia plant response rating (0 to 100 scale, 0 is no effect, 100 is complete control) (Kochia (Kochia scoparia) [10]; [26]): 80
- Plant response rating, Ragweed [11, 25]: 0
- Ragweed plant response rating (0 to 100 scale, 0 is no effect, 100 is complete control) [11, 26]: 50
- Plant response rating, Foxtail, Giant [12, 25]: 90
- Foxtail, Giant plant response rating (0 to 100 scale, 0 is no effect, 100 is complete control) [12, 26]: 100
- Plant response rating, Barnyardgrass [13, 25]: 90
- Barnyardgrass plant response rating (0 to 100 scale, 0 is no effect, 100 is complete control) [13, 26]: 100
- Plant response rating, Ryegrass, Italian [14, 25]: 40
- Ryegrass, Italian plant response rating (0 to 100 scale, 0 is no effect, 100 is complete control) [14, 26]: 60
- Plant response rating, Pigweed [15, 25]: 80
- Pigweed plant response rating (0 to 100 scale, 0 is no effect, 100 is complete control) [15, 26]: 90
- Plant response rating, Rice (rice (Oryra sativa)): 0
- Plant response rating, Barnyardgrass [16]: 60
- Plant response rating, Ducksalad [17]: 100
- Plant response rating, Sedge, Umbrella [18]: 0
